From patent US10670605B2, “Cysteine reactive probes and uses thereof” (The Scripps Research Institute, priority 2015, dated 2020)

How the values were obtained:
Experiment in all cases: Competitive isoTOP-ABPP in situ (fragment-treated cells)
Format in all cases: cell-based
[1] = molecular target: T1, cysteines in MDA-MB-231 and Ramos cells (Homo sapiens, UniProt Q96S55)
T1 sequence (Q96S55 1-665): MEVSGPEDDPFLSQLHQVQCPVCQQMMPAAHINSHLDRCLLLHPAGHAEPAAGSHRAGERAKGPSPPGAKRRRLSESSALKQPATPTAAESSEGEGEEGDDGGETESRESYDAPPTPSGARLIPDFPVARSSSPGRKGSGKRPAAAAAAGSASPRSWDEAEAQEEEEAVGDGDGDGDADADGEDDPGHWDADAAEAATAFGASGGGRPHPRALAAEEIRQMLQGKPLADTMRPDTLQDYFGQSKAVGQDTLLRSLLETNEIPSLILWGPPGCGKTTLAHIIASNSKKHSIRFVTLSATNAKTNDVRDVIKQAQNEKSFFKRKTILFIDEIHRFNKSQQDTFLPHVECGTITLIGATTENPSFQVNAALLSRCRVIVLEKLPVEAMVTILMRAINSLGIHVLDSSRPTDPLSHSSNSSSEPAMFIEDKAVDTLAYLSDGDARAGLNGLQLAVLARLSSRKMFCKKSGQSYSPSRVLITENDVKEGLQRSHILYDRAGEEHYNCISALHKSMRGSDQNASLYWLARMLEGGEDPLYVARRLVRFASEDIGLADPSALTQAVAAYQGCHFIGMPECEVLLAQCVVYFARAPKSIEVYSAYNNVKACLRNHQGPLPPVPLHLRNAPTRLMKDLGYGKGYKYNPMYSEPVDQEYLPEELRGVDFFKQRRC

[2] = molecular target: T2, cysteines in MDA-MB-231 and Ramos cells (Homo sapiens, UniProt P24752)
T2 sequence (P24752 34-427): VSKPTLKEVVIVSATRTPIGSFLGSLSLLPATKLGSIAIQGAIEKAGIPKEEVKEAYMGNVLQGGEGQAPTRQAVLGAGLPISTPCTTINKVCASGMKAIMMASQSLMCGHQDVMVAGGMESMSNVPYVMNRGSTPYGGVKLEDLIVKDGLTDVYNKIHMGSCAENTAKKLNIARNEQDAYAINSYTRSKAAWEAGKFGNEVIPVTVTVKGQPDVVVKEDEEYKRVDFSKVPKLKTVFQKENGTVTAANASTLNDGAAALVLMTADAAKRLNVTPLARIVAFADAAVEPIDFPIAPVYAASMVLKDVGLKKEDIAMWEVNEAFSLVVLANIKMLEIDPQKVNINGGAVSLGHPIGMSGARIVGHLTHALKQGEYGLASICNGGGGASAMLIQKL

[3] = molecular target: cysteines in MDA-MB-231 and Ramos cells (Homo sapiens, UniProt P38606)
Chain of cysteines in MDA-MB-231 and Ramos cells (Homo sapiens, UniProt P38606) (P38606 whole entry): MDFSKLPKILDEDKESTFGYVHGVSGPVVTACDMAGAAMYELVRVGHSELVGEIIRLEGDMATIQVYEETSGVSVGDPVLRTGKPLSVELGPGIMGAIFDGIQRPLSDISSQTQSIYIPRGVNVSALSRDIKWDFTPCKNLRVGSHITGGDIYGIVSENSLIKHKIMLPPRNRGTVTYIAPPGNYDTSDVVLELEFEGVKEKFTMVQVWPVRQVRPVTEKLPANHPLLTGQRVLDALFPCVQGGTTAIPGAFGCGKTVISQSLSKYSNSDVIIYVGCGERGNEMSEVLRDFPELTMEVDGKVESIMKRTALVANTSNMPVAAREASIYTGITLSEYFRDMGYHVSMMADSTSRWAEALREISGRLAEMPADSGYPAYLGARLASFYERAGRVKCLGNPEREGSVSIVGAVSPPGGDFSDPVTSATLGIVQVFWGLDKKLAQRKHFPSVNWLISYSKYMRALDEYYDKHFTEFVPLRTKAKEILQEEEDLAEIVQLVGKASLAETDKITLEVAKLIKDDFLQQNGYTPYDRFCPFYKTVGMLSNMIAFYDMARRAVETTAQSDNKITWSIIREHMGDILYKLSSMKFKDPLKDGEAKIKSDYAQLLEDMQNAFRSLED

[4] = molecular target: cysteines in MDA-MB-231 and Ramos cells (Homo sapiens, UniProt P83731)
[5] = molecular target: T3, cysteines in MDA-MB-231 and Ramos cells (Homo sapiens, UniProt P42166)
T3 sequence (P42166 1-694): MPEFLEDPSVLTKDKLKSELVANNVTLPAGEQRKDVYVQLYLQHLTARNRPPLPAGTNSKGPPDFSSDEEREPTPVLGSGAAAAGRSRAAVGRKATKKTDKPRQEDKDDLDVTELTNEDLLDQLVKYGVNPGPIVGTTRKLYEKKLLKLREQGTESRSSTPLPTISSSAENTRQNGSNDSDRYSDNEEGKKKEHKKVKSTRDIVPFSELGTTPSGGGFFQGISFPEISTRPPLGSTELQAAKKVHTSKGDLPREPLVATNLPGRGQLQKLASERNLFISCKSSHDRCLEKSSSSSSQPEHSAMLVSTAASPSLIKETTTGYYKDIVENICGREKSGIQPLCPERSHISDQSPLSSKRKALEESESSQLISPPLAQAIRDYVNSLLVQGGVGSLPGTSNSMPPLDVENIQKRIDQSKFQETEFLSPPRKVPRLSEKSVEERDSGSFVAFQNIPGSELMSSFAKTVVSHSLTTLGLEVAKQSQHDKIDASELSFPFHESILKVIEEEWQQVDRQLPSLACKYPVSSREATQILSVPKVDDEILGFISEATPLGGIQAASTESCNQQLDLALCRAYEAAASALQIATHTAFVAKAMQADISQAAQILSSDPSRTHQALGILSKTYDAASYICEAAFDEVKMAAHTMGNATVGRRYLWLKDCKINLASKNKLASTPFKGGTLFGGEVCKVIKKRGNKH

[6] = molecular target: T4, cysteines in MDA-MB-231 and Ramos cells (Homo sapiens, UniProt Q5T0N5)
T4 sequence (Q5T0N5 1-605): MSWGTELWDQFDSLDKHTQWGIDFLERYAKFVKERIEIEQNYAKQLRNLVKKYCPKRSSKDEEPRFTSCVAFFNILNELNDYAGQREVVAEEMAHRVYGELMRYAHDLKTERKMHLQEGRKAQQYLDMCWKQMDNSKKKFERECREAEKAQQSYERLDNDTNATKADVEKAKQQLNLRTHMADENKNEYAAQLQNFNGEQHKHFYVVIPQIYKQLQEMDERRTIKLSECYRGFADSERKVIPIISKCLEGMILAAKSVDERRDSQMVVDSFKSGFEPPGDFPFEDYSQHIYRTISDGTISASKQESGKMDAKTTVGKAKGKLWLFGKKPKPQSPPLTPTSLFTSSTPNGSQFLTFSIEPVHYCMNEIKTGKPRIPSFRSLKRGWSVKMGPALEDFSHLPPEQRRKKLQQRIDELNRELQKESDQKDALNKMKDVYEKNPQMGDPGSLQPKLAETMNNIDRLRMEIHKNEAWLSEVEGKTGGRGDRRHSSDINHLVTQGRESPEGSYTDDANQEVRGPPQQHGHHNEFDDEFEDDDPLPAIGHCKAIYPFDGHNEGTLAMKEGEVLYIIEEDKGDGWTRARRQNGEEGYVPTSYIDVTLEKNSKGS

[7] = molecular target: T5, cysteines in MDA-MB-231 and Ramos cells (Homo sapiens, UniProt P10599)
T5 sequence (P10599 1-105): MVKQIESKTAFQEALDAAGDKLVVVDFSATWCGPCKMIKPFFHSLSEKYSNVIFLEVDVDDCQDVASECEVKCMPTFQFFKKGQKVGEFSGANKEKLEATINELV

[8] = molecular target: cysteines in MDA-MB-231 and Ramos cells (Homo sapiens, UniProt Q9BXW7)
Chain of cysteines in MDA-MB-231 and Ramos cells (Homo sapiens, UniProt Q9BXW7) (Q9BXW7 24-423): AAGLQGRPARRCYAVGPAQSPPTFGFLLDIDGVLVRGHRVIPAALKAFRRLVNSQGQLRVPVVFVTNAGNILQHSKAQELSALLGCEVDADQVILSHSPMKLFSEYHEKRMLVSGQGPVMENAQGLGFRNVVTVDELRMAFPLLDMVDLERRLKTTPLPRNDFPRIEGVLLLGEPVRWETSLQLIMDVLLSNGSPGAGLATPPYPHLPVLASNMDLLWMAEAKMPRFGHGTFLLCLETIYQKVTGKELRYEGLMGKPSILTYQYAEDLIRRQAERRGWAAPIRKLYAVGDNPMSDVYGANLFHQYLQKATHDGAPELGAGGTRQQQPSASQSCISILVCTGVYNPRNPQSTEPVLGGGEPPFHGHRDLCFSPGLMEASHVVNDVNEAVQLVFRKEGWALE

CC(C)CCOCCNC(=O)CCl [compound 27]
isoTOP-ABPP ratio Q96S55_C272 ([1]; 200 μM, insitu, 231): 0.9
isoTOP-ABPP ratio P24752_C119 ([2]; 200 μM, insitu, 231): 1.6
isoTOP-ABPP ratio P24752_C413 ([2]; 200 μM, insitu, 231): 1.9
isoTOP-ABPP ratio P38606_C138 ([3]; 200 μM, insitu, 231): 4.6
isoTOP-ABPP ratio P83731_C6 ([4]; 200 μM, insitu, 231): 0.4
isoTOP-ABPP ratio P42166_C341 ([5]; 200 μM, insitu, 231): 0.6
isoTOP-ABPP ratio P42166_C561 ([5]; 200 μM, insitu, 231): 0.8
isoTOP-ABPP ratio Q5T0N5_C69 ([6]; 200 μM, insitu, 231): 0.6
isoTOP-ABPP ratio P10599_C32 ([7]; 200 μM, insitu, 231): 2.5
isoTOP-ABPP ratio Q9BXW7_C392 ([8]; 200 μM, insitu, 231): 1.3

COc1cc2c(cc1OC)CN(C(=O)CCl)CC2 [compound 8]
isoTOP-ABPP reactivity Q96S55_C272 WRNIP1 ([1]; 200 μM, insitu, 231): 1.2
isoTOP-ABPP reactivity P24752_C119 ACAT1 ([2]; 200 μM, insitu, 231): 5.5
isoTOP-ABPP reactivity P24752_C126 ACAT1 ([2]; 200 μM, insitu, 231): 4.5
isoTOP-ABPP reactivity P24752_C413 ACAT1 ([2]; 200 μM, insitu, 231): 20.0
isoTOP-ABPP reactivity P38606_C138 ATP6V1A ([3]; 200 μM, insitu, 231): 20.0
isoTOP-ABPP reactivity P42166_C341 TMPO ([5]; 200 μM, insitu, 231): 4.4
isoTOP-ABPP reactivity P42166_C561 TMPO ([5]; 200 μM, insitu, 231): 4.6
isoTOP-ABPP reactivity P42166_C629 TMPO ([5]; 200 μM, insitu, 231): 1.7
isoTOP-ABPP reactivity P42166_C684 TMPO ([5]; 200 μM, insitu, 231): 4.6
isoTOP-ABPP reactivity Q5T0N5_C69 FNBP1L ([6]; 200 μM, insitu, 231): 3.6
isoTOP-ABPP reactivity P10599_C32 TXN ([7]; 200 μM, insitu, 231): 5.9
isoTOP-ABPP reactivity Q9BXW7_C392 CECR5 ([8]; 200 μM, insitu, 231): 3.2

COc1ccc(C2CC(c3cccs3)=NN2C(=O)CCl)cc1 (centres unmarked) [compound 4]
isoTOP-ABPP reactivity Q96S55_C272 WRNIP1 ([1]; 100 μM in situ 231): 3.7
isoTOP-ABPP reactivity P24752_C119 ACAT1 ([2]; 100 μM in situ 231): 3.0
isoTOP-ABPP reactivity P24752_C126 ACAT1 ([2]; 100 μM in situ 231): 2.8
isoTOP-ABPP reactivity P24752_C196 ACAT1 ([2]; 100 μM in situ 231): 3.5
isoTOP-ABPP reactivity P24752_C413 ACAT1 ([2]; 100 μM in situ 231): 4.5
isoTOP-ABPP reactivity P38606_C138 ATP6V1A ([3]; 100 μM in situ 231): 20.0
isoTOP-ABPP reactivity P83731_C6 RPL24 ([4]; 100 μM in situ 231): 0.7
isoTOP-ABPP reactivity P42166_C561 TMPO ([5]; 100 μM in situ 231): 20.0
isoTOP-ABPP reactivity Q5T0N5_C69 FNBP1L ([6]; 100 μM in situ 231): 20.0
isoTOP-ABPP reactivity P10599_C32 TXN ([7]; 100 μM in situ 231): 3.3
isoTOP-ABPP reactivity Q9BXW7_C392 CECR5 ([8]; 100 μM in situ 231): 2.2

O=C(CCl)Nc1cccc2ncccc12 [compound 51]
isoTOP-ABPP ratio Q96S55_C272 ([1]; 200 μM, insitu, 231): 0.9
isoTOP-ABPP ratio P24752_C119 ([2]; 200 μM, insitu, 231): 0.7
isoTOP-ABPP ratio P24752_C413 ([2]; 200 μM, insitu, 231): 1.1
isoTOP-ABPP ratio P38606_C138 ([3]; 200 μM, insitu, 231): 10.6
isoTOP-ABPP ratio P42166_C341 ([5]; 200 μM, insitu, 231): 1.2
isoTOP-ABPP ratio P42166_C561 ([5]; 200 μM, insitu, 231): 1.3
isoTOP-ABPP ratio P42166_C684 ([5]; 200 μM, insitu, 231): 1.2
isoTOP-ABPP ratio Q5T0N5_C69 ([6]; 200 μM, insitu, 231): 1.7
isoTOP-ABPP ratio P10599_C32 ([7]; 200 μM, insitu, 231): 13.9
isoTOP-ABPP ratio Q9BXW7_C392 ([8]; 200 μM, insitu, 231): 1.1

COc1ccccc1OCCNC(=O)CCl [compound 28]
isoTOP-ABPP ratio Q96S55_C272 ([1]; 200 μM, insitu, 231): 0.5
isoTOP-ABPP ratio P24752_C119 ([2]; 200 μM, insitu, 231): 1.0
isoTOP-ABPP ratio P24752_C413 ([2]; 200 μM, insitu, 231): 1.0
isoTOP-ABPP ratio, P24752_C126 ([2]; 200 μM, insitu, 231): 1.2
isoTOP-ABPP ratio P42166_C561 ([5]; 200 μM, insitu, 231): 1.1
isoTOP-ABPP ratio P10599_C32 ([7]; 200 μM, insitu, 231): 20.0
isoTOP-ABPP ratio Q9BXW7_C392 ([8]; 200 μM, insitu, 231): 1.0
